Experiment: Solubility
Format: physicochemical
Conditions: CB[10] alone

solubility: insoluble
SMILES: O=C1N2CN3C(=O)N4CN5C(=O)N6CN7C(=O)N8CN9C(=O)N%10CN%11C(=O)N%12CN%13C(=O)N%14CN%15C(=O)N%16CN%17C(=O)N%18CN%19C(=O)N%20CN1C1C2N2CN%21C(=O)N(CN%22C(=O)N(CN%23C(=O)N(CN%24C(=O)N(CN%25C(=O)N(CN%26C(=O)N(CN%27C(=O)N(CN%28C(=O)N(CN%29C(=O)N(CN1C2=O)C%20C%19%29)C%18C%17%28)C%16C%15%27)C%14C%13%26)C%12C%11%25)C%10C9%24)C8C7%23)C6C5%22)C4C3%21 (stereo not shown) [CB[10], cucurbit[10]uril]

Source: patent US20230373962A1, “SUPRAMOLECULAR MOLECULES FOR THE TREATMENT OF CANCER” (The University of Birmingham, priority 2020, published 2023)
